As a reminder, the pKi is −log10 of the Ki, conventionally taken in molar units.

SMILES strings stand for the structures. pKi: −log10 of the molar value.

Consider three compounds from ChEMBL document CHEMBL1130833, “Inhibition of electric eel acetylcholinesterase by porphin compounds” (Bioorg Med Chem Lett, 1998).

This assay has as its target Acetylcholinesterase (Electrophorus electricus, UniProt O42275). Put plainly: Compound was evaluated for inhibitory constant for the electric eel Acetylcholinesterase (AChE).

Chain of Acetylcholinesterase (O42275 whole entry): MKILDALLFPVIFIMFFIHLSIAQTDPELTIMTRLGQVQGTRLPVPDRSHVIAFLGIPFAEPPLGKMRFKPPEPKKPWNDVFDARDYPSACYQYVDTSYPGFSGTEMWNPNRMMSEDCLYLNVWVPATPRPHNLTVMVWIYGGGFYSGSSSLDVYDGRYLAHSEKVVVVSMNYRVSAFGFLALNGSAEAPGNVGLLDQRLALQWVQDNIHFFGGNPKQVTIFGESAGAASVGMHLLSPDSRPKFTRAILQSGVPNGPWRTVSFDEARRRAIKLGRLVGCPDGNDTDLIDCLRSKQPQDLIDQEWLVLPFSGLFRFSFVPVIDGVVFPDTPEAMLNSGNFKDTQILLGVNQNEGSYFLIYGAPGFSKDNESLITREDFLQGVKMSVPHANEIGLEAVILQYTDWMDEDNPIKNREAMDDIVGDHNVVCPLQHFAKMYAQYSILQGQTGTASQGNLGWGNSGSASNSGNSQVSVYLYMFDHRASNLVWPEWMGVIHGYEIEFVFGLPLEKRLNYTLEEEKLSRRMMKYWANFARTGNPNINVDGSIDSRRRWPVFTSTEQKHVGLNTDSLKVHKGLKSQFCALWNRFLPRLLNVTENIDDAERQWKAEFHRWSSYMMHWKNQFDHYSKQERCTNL

Take `Fc1ccc(-c2c3nc(c(-c4ccc(F)cc4F)c4ccc([nH]4)c(-c4ccc(F)cc4F)c4ccc([nH]4)c(-c4ccc(F)cc4F)c4nc2C=C4)C=C3)c(F)c1`: the pKi is 8.30. On the same count and under the same terms, the result for `Fc1cccc(F)c1-c1c2nc(c(-c3c(F)cccc3F)c3ccc([nH]3)c(-c3c(F)cccc3F)c3ccc([nH]3)c(-c3c(F)cccc3F)c3nc1C=C3)C=C2` reads 7.92. Consider `C1=Cc2nc1c(-c1ccccc1)c1ccc([nH]1)c(-c1ccccc1)c1nc(c(-c3ccccc3)c3ccc([nH]3)c2-c2ccccc2)C=C1`, for which, under “tested as the Zn salt or complex”, the pKi was 5.27.
